Measurements taken from patent US6433167B1, “Triazolo-1,4-diazepine compounds and medicinal composition containing the same” (Nikken Chemicals Co., Ltd., priority 1997, dated 2002).

Legend:
[1] = system: platelet activating factor (PAF)-induced aggregation of platelet rich plasma (PRP); assay: PAF antagonistic action test (PAF-induced platelet aggregation in platelet rich plasma); format: cell-based, Japanese white rabbits; details: test compound final concentration 10^−7M; PAF final concentration 17 nM; rabbit PRP, 37° C.
Experimental: Japanese white rabbits (2.5 to 3.0 kg, Clean Experimental Animal Center) were used. Nine volumes of blood were taken with respect to one volume of 3.8% sodium citrate from the carotid under anesthesia by pentobarbitol. This was centrifuged at 1000 rpm and room temperature for 10 minutes. The top layer was used as the platelet rich plasma (PRP). The lower layer was further centrifuged at 3000 rpm and room temperature for 10 minutes to obtain the platelet poor plasma (PPP).
5 μl (final concentration 10^−7M) of the test compound was added to 90 μl of PRP. This was incubated at 37° C. for 3 minutes, then a platelet activating factor (PAF, final concentration 17 nM) was added to cause aggregation and the aggregation reaction was measured for 5 minutes using an aggrigometer (MC Medical, PAT-606).

[2] = target: T1, TxA2 synthesis in human blood platelet microsomes (Homo sapiens, UniProt P24557); assay: TxA2 synthesis inhibiting action test (TxB2 by EIA); format: biochemical; details: test compound final concentration 10^−7M, human blood platelet microsomes 50 μg protein/ml, prostaglandin H2 substrate
T1 construct: containing human blood platelet microsomes (50 μg protein/ml); from tissue; host or cells: human blood platelet microsomes
T1 sequence (P24557 1-533): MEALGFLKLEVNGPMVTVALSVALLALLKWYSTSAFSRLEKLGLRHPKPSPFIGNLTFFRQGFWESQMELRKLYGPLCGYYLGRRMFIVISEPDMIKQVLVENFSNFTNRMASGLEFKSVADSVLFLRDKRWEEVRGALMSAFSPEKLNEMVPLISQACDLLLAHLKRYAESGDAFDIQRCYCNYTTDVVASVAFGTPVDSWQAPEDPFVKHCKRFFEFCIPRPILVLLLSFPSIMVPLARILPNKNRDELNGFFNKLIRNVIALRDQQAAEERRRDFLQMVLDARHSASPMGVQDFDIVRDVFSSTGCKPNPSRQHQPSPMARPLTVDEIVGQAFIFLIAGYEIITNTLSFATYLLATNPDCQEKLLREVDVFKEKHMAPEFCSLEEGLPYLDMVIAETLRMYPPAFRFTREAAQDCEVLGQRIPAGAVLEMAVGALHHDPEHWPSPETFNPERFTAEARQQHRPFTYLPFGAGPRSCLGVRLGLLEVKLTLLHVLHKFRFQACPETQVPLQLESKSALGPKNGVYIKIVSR
Experimental: 1 ml of a buffer (20 MM Tris-HCl buffer, 1 mM EDTA, pH 7.5) containing human blood platelet microsomes (50 μg protein/ml) and the test compound (final concentration 10^−7M) was agitated, then incubated at 0° C. for 30 minutes. To this was added prostaglandin H2 (100 ng/2 μl). This was incubated at 23° C. for 3 minutes to cause a reaction. Next, 1M hydrochloric acid was added to make the solution acidic and stop the reaction, then this was neutralized by 1M Tris-Base and centrifuged at 3000 rpm for 20 minutes. The amount of the TxB2 in the supernatant was measured by the EIA method (Cayman Co. kit).
The test results are shown in Table II. a Further, as controls, UK-74,505 having a PAF antagonistic action and OKY-046 having a TxA2 synthesis inhibiting action were used.

rats or mice = assay: Acute toxicity test; format: in vivo; details: administered intravenously, 10 mg/kg

`CCOC(=O)CCCCON=C(c1cccnc1)c1cccc(CCCC(=O)N2CCc3c(sc4c3C(c3ccccc3Cl)=NC(C)c3nnc(C)n3-4)C2)c1` (mixture of isomers) [Compound 5, 6-(2-Chlorophenyl)-3-[3-[3-[((E/Z)-4-ethoxycarbonylbutyloxyimino)(3-pyridyl)methyl]phenyl]propylcarbonyl]-8,11-dimethyl-2,3,4,5-tetrahydro-8H-pyrido[4′,3′:4,5]thieno[3,2-f][1,2,4]triazolo[4,3-a][1,4]diazepine] was tested, and the “PAF antagonistic action Rate of suppression at 10^−7 M (%)” value (“PAF antagonistic action Rate … (%)” below) [1] was 95.5% and the “TxA2 synthesis inhibiting action Rate of suppression at 10^−7 M (%)” value (“TxA2 synthesis inhibiting action Rate … (%)” below) [2] was 40.3%.

`Cc1nnc2n1-c1sc3c(c1C(c1ccccc1Cl)=NC2C)CCN(Cc1cccc(C(=NOCCCCC(=O)O)c2cccnc2)c1)C3` (mixture of isomers) [Compound 8, 6-(2-Chlorophenyl)-3-[3-[((E/Z)-4-carboxydibutyloxyimino)(3-pyridyl)methyl]phenylmethyl]-8,11-dimethyl-2,3,4,5-tetrahydro-8H-pyrido[4′,3′:4,5]thieno[3,2-f][1,2,4]triazolo[4,3-a][1,4]diazepine] was tested, and the “PAF antagonistic action Rate … (%)” value [1] was 52.0% and the “TxA2 synthesis inhibiting action Rate … (%)” value [2] was 81.7%.

For `CCOC(=O)C1=C(c2ccc(-n3c(C)nc4cnccc43)cc2)NC(C)=C(C(=O)Nc2ccccn2)C1c1ccccc1Cl` (centres unmarked) [UK-74,505, reference compound], the “PAF antagonistic action Rate … (%)” value [1] was 89.0% and the “TxA2 synthesis inhibiting action Rate … (%)” value [2] was 0%.

For `CCOC(=O)CCCCC=C(c1ccc(CN2CCc3c(sc4c3C(c3ccccc3Cl)=NC(C)c3nnc(C)n3-4)C2)cc1)c1cccnc1` (mixture of isomers) [Compound 11, 6-(2-Chlorophenyl)-3-[4-[((E/Z)-5-ethoxycarbonylpentylidene)(3-pyridyl)methyl]phenylmethyl]-8,11-dimethyl-2,3,4,5-tetrahydro-8H-pyrido[4′,3′:4,5]thieno[3,2-f][1,2,4]triazolo[4,3-a][1,4]diazepine], the “PAF antagonistic action Rate … (%)” value [1] was 94.2% and the “TxA2 synthesis inhibiting action Rate … (%)” value [2] was 83.7%.

In the case of `CCOC(=O)CCCCON=C(c1cccnc1)c1cccc(CN2CCc3c(sc4c3C(c3ccccc3Cl)=NC(C)c3nnc(C)n3-4)C2)c1` (mixture of isomers) [Compound 7, 6-(2-Chlorophenyl)-3-[3-[((E/Z)-4-ethoxycarbonylbutyloxyimino)(3-pyridyl)methyl]phenylmethyl]-8,11-dimethyl-2,3,4,5-tetrahydro-8H-pyrido[4′,3′:4,5]thieno[3,2-f][1,2,4]triazolo[4,3-a][1,4]diazepine], the “PAF antagonistic action Rate … (%)” value [1] is reported as 94.0% and the “TxA2 synthesis inhibiting action Rate … (%)” value [2] is reported as 58.2%.

For `CCOC(=O)CCCCON=C(c1cccnc1)c1ccccc1C(=O)N1CCc2c(sc3c2C(c2ccccc2Cl)=NC(C)c2nnc(C)n2-3)C1` (mixture of isomers) [Compound 1, 6-(2-Chlorophenyl)-3-[2-[((E/Z)-4-ethoxycarbonylbutyloxyimino)(3-pyridyl)methylene]phenylcarbonyl]-8,11-dimethyl-2,3,4,5-tetrahydro-8H-pyrido[4′,3′:4,5]thieno[3,2-f][1,2,4]triazolo[4,3-a][1,4]diazepine], the “PAF antagonistic action Rate … (%)” value [1] was 82.0% and the inhibition at 0.1 µM ([2]; read-out: TxA2 synthesis inhibiting action Rate of suppression at 10^−7 M (%)) was 53%.

`CCOC(=O)CCCCON=C(c1ccc(CC(=O)N2CCc3c(sc4c3C(c3ccccc3Cl)=NC(C)c3nnc(C)n3-4)C2)cc1)c1cccnc1` (mixture of isomers) [Compound 4, 6-(2-Chlorophenyl)-3-[4-[((E/Z)-4-ethoxycarbonylbutyloxyimino)(3-pyridyl)methyl]phenylmethylcarbonyl]-8,11-dimethyl-2,3,4,5-tetrahydro-8H-pyrido[4′,3′:4,5]thieno[3,2-f](1,2,4]triazolo[4,3-a][1,4]diazepine] was tested, and the “Deaths after intravenous administration” value (rats or mice) was “no deaths were observed”, the “PAF antagonistic action Rate … (%)” value [1] was 94.6% and the “TxA2 synthesis inhibiting action Rate … (%)” value [2] was 79.6%.

For `CCOC(=O)CCCCON=C(c1ccc(COCC(=O)N2CCc3c(sc4c3C(c3ccccc3Cl)=NC(C)c3nnc(C)n3-4)C2)cc1)c1cccnc1` (mixture of isomers) [Compound 6, 6-(2-Chlorophenyl)-3-[4-[((E/Z)-4-ethoxycarbonylbutyloxyimino)(3-pyridyl)methyl]phenylmethyloxymethylcarbonyl]-8,11-dimethyl-2,3,4,5-tetrahydro-8H-pyrido[4′,3′:4,5]thieno[3,2-f][1,2,4]triazolo[4,3-a][1,4]diazepine], the “Deaths after intravenous administration” value (rats or mice) was “no deaths were observed”, the “PAF antagonistic action Rate … (%)” value [1] was 79.8% and the “TxA2 synthesis inhibiting action Rate … (%)” value [2] was 75.6%.

For `O=C(O)/C=C/c1ccc(Cn2ccnc2)cc1` [OKY-046, reference compound], the “PAF antagonistic action Rate … (%)” value [1] was 0% and the “TxA2 synthesis inhibiting action Rate … (%)” value [2] was 84.5%.
